Assay results: PubChem BioAssay AID256 (DTP/NCI, 2004)
“And” between values parts separate entries of the source, which are not always exact repeats. Identical values can stand only once. Toxic doses and inconclusive results are not listed. How the source made its calls: active means survival T/C of 150% or more; inactive means T/C below 125% in these data.

System: CD2F1 mice, L1210 leukemia ip, survival T/C
Experiment: NCI In Vivo Anticancer Drug Screen. Data for tumor model L1210 Leukemia (intraperitoneal) in CD2F1 (CDF1) mice
Settings: endpoint: mean survival time, higher = longer survival
Method in brief: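 Read-out first: treated-group measurement over vehicle-control measurement, expressed as a ratio. Animals bore a transplanted tumor line and were dosed with compound or vehicle.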

[1] = dose: 100.0 mg/kg/injection, schedule: Q04DX002 (ip), vehicle: saline with Tween-80
[2] = dose: 200.0 mg/kg/injection, schedule: Q04DX002 (ip), vehicle: saline with Tween-80
[3] = dose: 400.0 mg/kg/injection, schedule: Q04DX002 (ip), vehicle: saline with Tween-80
[4] = dose: 100.0 mg/kg/injection, schedule: Q04DX003 (ip), vehicle: saline with Tween-80
[5] = dose: 200.0 mg/kg/injection, schedule: Q04DX003 (ip), vehicle: saline with Tween-80
[6] = dose: 400.0 mg/kg/injection, schedule: Q04DX003 (ip), vehicle: saline with Tween-80
[7] = dose: 100.0 mg/kg/injection, schedule: Q01DX001 (ip), vehicle: saline with Tween-80
[8] = dose: 400.0 mg/kg/injection, schedule: Q01DX001 (ip), vehicle: saline with Tween-80
[9] = dose: 100.0 mg/kg/injection, schedule: Q04DX003 (ip), vehicle: saline
[10] = dose: 200.0 mg/kg/injection, schedule: Q04DX003 (ip), vehicle: saline
[11] = dose: 50.0 mg/kg/injection, schedule: Q01DX009 (ip), vehicle: saline with Tween-80
[12] = dose: 100.0 mg/kg/injection, schedule: Q01DX009 (ip), vehicle: saline with Tween-80
[13] = dose: 200.0 mg/kg/injection, schedule: Q01DX009 (ip), vehicle: saline with Tween-80
[14] = dose: 400.0 mg/kg/injection, schedule: Q01DX009 (ip), vehicle: saline with Tween-80

Measured: T/C

COC1=C2C[C@@H](C)C[C@@H](OC)[C@@H](O)[C@H](C)/C=C(\C)[C@@H](OC(N)=O)[C@H](OC)/C=C\C=C(/C)C(=O)NC(=CC1=O)C2=O
inactive: dose: 0.12 mg/kg/injection, schedule: Q01DX009 (ip), vehicle: saline with Tween-80 102 % of control | dose: 0.25 mg/kg/injection, schedule: Q01DX009 (ip), vehicle: saline with Tween-80 102 % of control | dose: 0.5 mg/kg/injection, schedule: Q01DX009 (ip), vehicle: saline with Tween-80 98 % of control | dose: 1.0 mg/kg/injection, schedule: Q01DX009 (ip), vehicle: saline with Tween-80 101 % of control | dose: 2.0 mg/kg/injection, schedule: Q01DX009 (ip), vehicle: saline with Tween-80 112 % of control | dose: 4.0 mg/kg/injection, schedule: Q01DX009 (ip), vehicle: saline with Tween-80 111 % of control | dose: 5.0 mg/kg/injection, schedule: Q01DX001 (ip), vehicle: saline 104 % of control | dose: 10.0 mg/kg/injection, schedule: Q01DX001 (ip), vehicle: saline 107 % of control

C[n+]1ccc(Nc2ccc(NC(=O)c3ccc(Nc4cc[n+](C)c5ccc(N)cc45)cc3N)cc2)cc1
active: dose: 2.0 mg/kg/injection, schedule: Q01DX009 (ip), vehicle: water 205 % of control | dose: 4.0 mg/kg/injection, schedule: Q01DX009 (ip), vehicle: water 316 % of control

CC(=O)Nc1ccc(/C=C2\N=C(c3cccc(Cl)c3)OC2=O)cc1
inactive: [1] 90 % of control | [2] 98 % of control | [3] 105 % of control

CC(C)CCCC(C)C1CCC2C3=CCC4CC(=O)CCC4(C)C3CCC21C (configuration not stated)
inactive: [4] 95 % of control | [5] 92 % of control | [6] 93 % of control

CC(C)(C)CC(C)(C)c1ccc(OCCOc2ccccc2NC(=O)CC(=O)c2cccc([N+](=O)[O-])c2)cc1
inactive: dose: 100.0 mg/kg/injection, schedule: Q01DX009 (ip), vehicle: Klucel (hydroxypropylcellulose) (HPC) 98 % of control | [4] 97 % of control | dose: 200.0 mg/kg/injection, schedule: Q01DX009 (ip), vehicle: Klucel (hydroxypropylcellulose) (HPC) 93 % of control | [5] 101 % of control | dose: 400.0 mg/kg/injection, schedule: Q01DX009 (ip), vehicle: Klucel (hydroxypropylcellulose) (HPC) 90 % of control | [6] 92 % of control

CCOc1ccc(-n2c(O)c(N=Nc3ccccc3)c(=O)n(-c3ccc(OC)cc3)c2=S)cc1
inactive: [7] 101 % of control | dose: 200.0 mg/kg/injection, schedule: Q01DX001 (ip), vehicle: saline with Tween-80 92 % of control | [8] 90 % of control

O=S(=O)(O)c1ccc(O)c(S(=O)(=O)O)c1
inactive: dose: 100.0 mg/kg/injection, schedule: Q01DX001 (ip), vehicle: saline 97 % of control | dose: 200.0 mg/kg/injection, schedule: Q01DX001 (ip), vehicle: saline 101 % of control | dose: 400.0 mg/kg/injection, schedule: Q01DX001 (ip), vehicle: saline 97 % of control

[Cl][Pt+2][Cl].[NH-]C(C(=O)O)C([NH-])C(=O)O (configuration not stated)
inactive: dose: 50.0 mg/kg/injection, schedule: Q04DX003 (ip), vehicle: saline 100 % of control | [9] 106 % of control | [10] 104 % of control

CCCCCCOC(=O)C[n+]1ccc(C(N)=O)cc1
inactive: [9] 101 % of control | [10] 94 % of control

CC1(c2ccc(Cl)cc2)OC(=O)C(=Cc2ccc([N+](=O)[O-])s2)C(=O)O1 (configuration not stated)
inactive: dose: 6.25 mg/kg/injection, schedule: Q01DX009 (ip), vehicle: saline with Tween-80 101 % of control | dose: 12.5 mg/kg/injection, schedule: Q01DX009 (ip), vehicle: saline with Tween-80 98 % of control and 101 % of control | dose: 25.0 mg/kg/injection, schedule: Q01DX009 (ip), vehicle: saline with Tween-80 96 % of control and 100 % of control | [11] 100 % of control and 101 % of control | [12] 102 % of control and 112 % of control | [13] 97 % of control

CC(=O)Nc1ccc(C(C)=O)cc1[N+](=O)[O-]
inactive: [12] 91 % of control | [4] 101 % of control | [13] 95 % of control | [5] 100 % of control | [14] 95 % of control | [6] 100 % of control

CCOc1ccccc1N1C(=O)CSC1=S
inactive: dose: 25.0 mg/kg/injection, schedule: Q04DX002 (ip), vehicle: other 93 % of control | dose: 50.0 mg/kg/injection, schedule: Q04DX002 (ip), vehicle: other 93 % of control | dose: 100.0 mg/kg/injection, schedule: Q04DX002 (ip), vehicle: other 89 % of control | dose: 200.0 mg/kg/injection, schedule: Q04DX002 (ip), vehicle: other 101 % of control

CC(=O)NCCSSCCNC(C)=O
inactive: dose: 50.0 mg/kg/injection, schedule: Q04DX002 (ip), vehicle: saline with Tween-80 91 % of control | [1] 95 % of control | [2] 88 % of control | [3] 109 % of control

COc1cccc2c1C(=O)c1c(O)c3c(c(O)c1C2=O)C[C@@](O)(C(=O)COC(C)=O)C[C@@H]3OC1CC(N)C(O)C(C)O1 (some centres not stated)
inactive: dose: 3.0 mg/kg/injection, schedule: Q04DX003 (ip), vehicle: saline with Tween-80 118 % of control
active: dose: 3.0 mg/kg/injection, schedule: Q01DX009 (ip), vehicle: saline 156 % of control

Cn1c(CC(O)(C(F)(F)Cl)C(F)(F)Cl)cc(=O)n1-c1ccccc1
inactive: dose: 50.0 mg/kg/injection, schedule: Q04DX003 (ip), vehicle: saline with Tween-80 101 % of control | [12] 97 % of control | [4] 97 % of control | [13] 97 % of control | [5] 97 % of control | [6] 92 % of control

CC(=O)Nc1cc2c(ncn2C2OC(CO)C(O)C2O)c(Br)n1 (configuration not stated)
inactive: dose: 12.5 mg/kg/injection, schedule: Q01DX005 (ip), vehicle: water 93 % of control | dose: 25.0 mg/kg/injection, schedule: Q01DX005 (ip), vehicle: water 94 % of control | dose: 50.0 mg/kg/injection, schedule: Q01DX005 (ip), vehicle: water 98 % of control | dose: 200.0 mg/kg/injection, schedule: Q01DX005 (ip), vehicle: water 94 % of control

CCNC(C)(C)C(SSSC(c1ccc(C(F)(F)F)cc1)C(C)(C)NCC)c1ccc(C(F)(F)F)cc1 (configuration not stated)
inactive: dose: 100.0 mg/kg/injection, schedule: Q01DX009 (ip), vehicle: saline 90 % of control

CCOc1ccc(CO)cc1
inactive: [12] 104 % of control | [13] 98 % of control | [14] 108 % of control

O=C1Nc2ccccc2/C1=N/N=C/c1cc(Cl)cc(Cl)c1O
inactive: [7] 94 % of control | [8] 95 % of control

COC1=CC(=O)C=C(OC(C)=O)C12Oc1c(Cl)c(C)c(Cl)c(O)c1C2=O (configuration not stated)
inactive: dose: 6.25 mg/kg/injection, schedule: Q04DX002 (ip), vehicle: saline with Tween-80 105 % of control | dose: 12.5 mg/kg/injection, schedule: Q04DX002 (ip), vehicle: saline with Tween-80 98 % of control | dose: 25.0 mg/kg/injection, schedule: Q04DX002 (ip), vehicle: saline with Tween-80 102 % of control

CC(C)=CCC/C(C)=C\COC(=N)C(Cl)(Cl)Cl
inactive: [11] 88 % of control | [12] 92 % of control | [13] 92 % of control
